We go through two substances from patent US8143374B2, “Polypeptide derivatives of parathyroid hormone (PTH)” (The General Hospital Corporation, priority 2006, dated 2012).

The term IC50 denotes the midpoint of a concentration-inhibition curve.

Where no end group is shown, it is not given here.

The target in experiment [1] is T1, ROS 17/2.8 cells (Rattus norvegicus, UniProt P25961).
T1 construct: ROS 17/2.8 cells are rat osteosarcoma cells and express the endogenous PTHR; host or cells: ROS 17/2.8 cells
T1 sequence (P25961 27-591): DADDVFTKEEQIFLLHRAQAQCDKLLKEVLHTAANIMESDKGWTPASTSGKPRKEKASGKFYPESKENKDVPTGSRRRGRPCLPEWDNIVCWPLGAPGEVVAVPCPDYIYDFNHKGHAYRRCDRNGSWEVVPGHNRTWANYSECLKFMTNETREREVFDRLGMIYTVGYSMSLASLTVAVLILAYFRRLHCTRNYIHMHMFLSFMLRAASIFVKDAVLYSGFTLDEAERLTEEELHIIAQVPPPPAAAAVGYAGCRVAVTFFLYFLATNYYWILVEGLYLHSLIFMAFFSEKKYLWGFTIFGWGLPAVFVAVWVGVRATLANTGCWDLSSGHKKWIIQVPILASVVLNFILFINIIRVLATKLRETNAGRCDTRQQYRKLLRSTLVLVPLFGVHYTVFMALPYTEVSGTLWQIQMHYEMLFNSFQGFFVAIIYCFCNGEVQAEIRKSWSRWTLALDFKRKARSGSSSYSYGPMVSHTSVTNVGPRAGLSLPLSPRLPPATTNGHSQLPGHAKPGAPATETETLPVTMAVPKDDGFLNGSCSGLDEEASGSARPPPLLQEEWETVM
Conditions: position-20 substitutions in PTH(1-31)NH2; cited from earlier work.

Experiment [2] has as its target T2, endogenous PTHR in ROS 17/2.8 cells (Rattus norvegicus, UniProt P25961).
T2 construct: ROS 17/2.8 cells are rat osteosarcoma cells and express the endogenous PTHR; endogenous in cells; host or cells: ROS 17/2.8 rat osteosarcoma cells
T2 sequence (P25961 27-591): T1 sequence (P25961 27-591)
Nature of the experiment: Competition binding in intact ROS 17/2.8 cells with 125I-PTH(1-34) tracer. The conditions noted are these: 125I-[Nle8,21,Tyr34]rPTH(1-34)NH2 tracer. As to the method:
Cell Culture—Cells were cultured at 37° C. in a humidified atmosphere containing 5% CO2 in Dulbecco's modified Eagle's medium (DMEM), supplemented with 10% fetal bovine serum (HyClone, Logan Utah), 100 units/ml penicillin G, and 100 ug/ml streptomycin penicillin G/streptomycin (Invitrogen Corp. Carlsbad, Calif.). For binding and cAMP studies performed with the intact PTHR, the HKRK-B7 and ROS 17/2.8 cell lines were used. HKRK-B7 cells are derived from the porcine kidney cell line LLC-PK1 and express, via stable DNA transfection, the wild-type human PTHR at an approximate surface density of 950,000 PTH-binding sites per cell. […]
Receptor binding—Binding to the wild-type human PTHR in intact HKRK-B7 cells and ROS 17/2.8 cells was assessed using ^125I-PTH(1-34) as a tracer radioligand, as described (Shimizu, M., (2001) Endocrinology 142:3068-3074). […] The binding mixture was then removed by aspiration, the cells were rinsed three times with binding buffer, lysed in 1 M NaOH, and the entire lysate was counted for gamma-irradiation in a gamma counter. Binding to PTHR-delNt in COS-7 cell membranes was assessed in 96-well, vacuum filtration plates (Multiscreen-Durapore HV, […] membranes, Millipore Corp., Millford, Mass.) using ^125I-[Aib^1,3,M]PTH(1-15)NH2 as a tracer radioligand, as described (Dean, T., (2006) Mol Endocrinol 20:931-942). […]

On to “SVSEIQLMHNLGKHLNSMEKVEWLRKKLQDV-NH2 [Arg^20→Lys]”, for which the “reduction of cAMP-stimulating potency” value in experiment [1] was “abolished activity altogether”.

The substance “SVSEIQLMHNLGKHLNSMEEVEWLRKKLQDV [Arg^20→Glu]” gave an IC50 in experiment [2] of 5.8 µM.
